Read-outs that look alike come from different tables or passages of the source. Square brackets hold non-standard residues; d marks the D form. Peptide text beside a SMILES is read from it. Cit = NC(=O)NCCC[C@H](N)C(=O)O
Legend:
HLA-DRB1*01:01 = target: T1, HLA-DRB1*01:01 (Homo sapiens, UniProt P01903+P01911, A100R/D57E/F55L/F60I/F76Y/I96L/L162R/M171V/P40L/Q125E/R42F/V115G/Y59C); experiment: HLA class II peptide binding, inhibition of radiolabeled peptide binding to purified MHC; details: for IC50: read-out: DRB1*01:01 binding capacity, Cit peptide (IC50 nM)
T1 construct: EBV transformed homozygous cell lines were used as sources of MHC molecules; endogenous in cells; host or cells: EBV transformed homozygous cell lines

HLA-DRB1*04:01 = target: T2, HLA-DRB1*04:01 (Homo sapiens, UniProt P01903+P01911, A100K/A169T/F76Y/I96L/K127E/L162R/M171V/N62H/P40V/Q125Y/R42H/S133A/S149N/S66Y/V115G/V209L/W38E); experiment: as above; details: for IC50: read-out: DRB1*04:01 binding capacity, Cit peptide (IC50 nM)
T2 construct: EBV transformed homozygous cell lines were used as sources of MHC molecules; endogenous in cells; host or cells: EBV transformed homozygous cell lines

[1] = citrullinated 15-mer peptide (X = citrulline), purified HLA-DRB1*01:01
[2] = citrullinated 15-mer peptide (X = citrulline), purified HLA-DRB1*04:01
[3] = citrullinated 15-mer (X), purified MHC, inhibition of radiolabeled peptide binding, dash = IC50 >40,000 nM
[4] = ratio of WT IC50 to Cit IC50, >1 = citrullination increases binding

SMILES	IC50 (HLA-DRB1*01:01; [1])	IC50 (HLA-DRB1*04:01; [2])	IC50 (HLA-DRB1*01:01; [3])	IC50 (HLA-DRB1*04:01; [3])	DRB1*01:01 binding capacity, WT/cit ratio (HLA-DRB1*01:01; [4])	DRB1*04:01 binding capacity, WT/cit ratio (HLA-DRB1*04:01; [4])
CC(C)[C@H](NC(=O)[C@H](CCCNC(N)=O)NC(=O)CNC(=O)[C@H](C)NC(=O)[C@H](C)NC(=O)CNC(=O)[C@@H]1CCCN1C(=O)[C@H](Cc1ccccc1)NC(=O)CNC(=O)[C@@H](N)[C@@H](C)O)C(=O)NCC(=O)N1CCC[C@H]1C(=O)N1CCC[C@H]1C(=O)NCC(=O)N[C@@H](CO)C(=O)O [TGFPGAAGXVGPPGS] (H-TGFPGAAG[Cit]VGPPGS-OH)	3470 nM	> 40000 nM				
C[C@H](NC(=O)CNC(=O)[C@@H]1CCCN1C(=O)[C@@H]1CCCN1C(=O)CNC(=O)[C@H](CCC(N)=O)NC(=O)[C@H](C)NC(=O)CNC(=O)[C@H](CCCNC(N)=O)NC(=O)[C@H](C)NC(=O)CNC(=O)[C@H](CCCCN)NC(=O)[C@@H]1CCCN1C(=O)CNC(=O)[C@@H](N)[C@@H](C)O)C(=O)O [TGPKGAXGAQGPPGA] (H-TGPKGA[Cit]GAQGPPGA-OH)	2690 nM	> 40000 nM				
CC[C@H](C)[C@H](NC(=O)[C@H](CC(C)C)NC(=O)[C@H](CC(C)C)NC(=O)[C@@H](NC(=O)[C@H](CCCNC(=N)N)NC(=O)[C@H](CCCCN)NC(=O)[C@H](CO)NC(=O)[C@H](Cc1c[nH]cn1)NC(=O)[C@@H](N)[C@@H](C)O)[C@@H](C)O)C(=O)N[C@@H](CCCCN)C(=O)N[C@H](C(=O)N[C@H](C(=O)N[C@@H](CCC(=O)O)C(=O)N[C@H](C(=O)N[C@@H](CCCNC(N)=O)C(=O)O)[C@@H](C)O)C(C)C)[C@@H](C)O [THSKRTLLIKTVETX] (H-THSKRTLLIKTVET[Cit]-OH)	310 nM	6020 nM				
CC[C@H](C)[C@H](NC(=O)[C@H](CC(C)C)NC(=O)[C@H](CC(C)C)NC(=O)[C@@H](NC(=O)[C@H](CCCNC(N)=O)NC(=O)[C@H](CCCCN)NC(=O)[C@H](CO)NC(=O)[C@H](Cc1c[nH]cn1)NC(=O)[C@@H](N)[C@@H](C)O)[C@@H](C)O)C(=O)N[C@@H](CCCCN)C(=O)N[C@H](C(=O)N[C@H](C(=O)N[C@@H](CCC(=O)O)C(=O)N[C@H](C(=O)N[C@@H](CCCNC(=N)N)C(=O)O)[C@@H](C)O)C(C)C)[C@@H](C)O [THSKXTLLIKTVETR] (H-THSK[Cit]TLLIKTVETR-OH)	176 nM	6430 nM				
CC[C@H](C)[C@H](NC(=O)[C@H](CCC(=O)O)NC(=O)[C@H](CC(=O)O)NC(=O)[C@H](CCC(N)=O)NC(=O)[C@H](CC(C)C)NC(=O)[C@H](CCCNC(N)=O)NC(=O)CNC(=O)[C@@H](NC(=O)[C@@H](N)[C@@H](C)O)[C@@H](C)CC)C(=O)N[C@@H](CCC(N)=O)C(=O)N[C@@H](CC(N)=O)C(=O)N[C@@H](CCSC)C(=O)N[C@@H](CCCCN)C(=O)N[C@@H](CCC(=O)O)C(=O)N[C@@H](CCC(=O)O)C(=O)O [TIGXLQDEIQNMKEE] (H-TIG[Cit]LQDEIQNMKEE-OH)	> 40000 nM	31800 nM				
CC[C@H](C)[C@H](NC(=O)[C@@H](NC(=O)[C@H](CCC(N)=O)NC(=O)CNC(=O)[C@H](CC(=O)O)NC(=O)[C@H](CCCNC(N)=O)NC(=O)[C@@H](NC(=O)[C@H](CCC(=O)O)NC(=O)[C@@H](NC(=O)[C@@H](NC(=O)[C@H](CCCCN)NC(=O)[C@@H](NC(=O)[C@H](CC(C)C)NC(=O)[C@H](CC(C)C)NC(=O)[C@@H](N)[C@@H](C)O)[C@@H](C)CC)[C@@H](C)O)C(C)C)[C@@H](C)O)C(C)C)C(=O)O [TLLIKTVETXDGQVI] (H-TLLIKTVET[Cit]DGQVI-OH)	2120 nM	2260 nM				
CC(C)C[C@H](NC(=O)[C@H](CCC(=O)O)NC(=O)[C@H](CCC(N)=O)NC(=O)[C@H](CC(C)C)NC(=O)[C@H](CCC(=O)O)NC(=O)[C@@H](NC(=O)[C@H](CCCCN)NC(=O)[C@H](CCC(=O)O)NC(=O)[C@H](CC(N)=O)NC(=O)[C@@H](N)[C@@H](C)O)C(C)C)C(=O)N[C@@H](CC(N)=O)C(=O)N[C@@H](CC(=O)O)C(=O)N[C@@H](CCCNC(N)=O)C(=O)N[C@@H](Cc1ccccc1)C(=O)N[C@@H](C)C(=O)O [TNEKVELQELNDXFA] (H-TNEKVELQELND[Cit]FA-OH)			5570 nM	> 40000 nM		
CSCC[C@H](NC(=O)[C@H](CCC(=O)O)NC(=O)[C@H](CCCNC(N)=O)NC(=O)[C@H](CCSC)NC(=O)[C@H](CCC(N)=O)NC(=O)[C@H](CCCNC(=N)N)NC(=O)[C@H](CCC(=O)O)NC(=O)[C@H](CC(C)C)NC(=O)[C@H](CO)NC(=O)[C@H](CCC(=O)O)NC(=O)[C@H](CC(N)=O)NC(=O)[C@@H](N)[C@@H](C)O)C(=O)N[C@@H](CCC(=O)O)C(=O)N[C@@H](CCC(=O)O)C(=O)N[C@@H](CC(N)=O)C(=O)O [TNESLERQMXEMEEN] (H-TNESLERQM[Cit]EMEEN-OH)	29700 nM	> 40000 nM				
CSCC[C@H](NC(=O)[C@H](CCC(=O)O)NC(=O)[C@H](CCCNC(=N)N)NC(=O)[C@H](CCSC)NC(=O)[C@H](CCC(N)=O)NC(=O)[C@H](CCCNC(N)=O)NC(=O)[C@H](CCC(=O)O)NC(=O)[C@H](CC(C)C)NC(=O)[C@H](CO)NC(=O)[C@H](CCC(=O)O)NC(=O)[C@H](CC(N)=O)NC(=O)[C@@H](N)[C@@H](C)O)C(=O)N[C@@H](CCC(=O)O)C(=O)N[C@@H](CCC(=O)O)C(=O)N[C@@H](CC(N)=O)C(=O)O [TNESLEXQMREMEEN] (H-TNESLE[Cit]QMREMEEN-OH; N-terminus and C-terminus assumed)	> 40000 nM	> 40000 nM			0.318	1.0
CC(C)C[C@H](NC(=O)[C@H](CC(N)=O)NC(=O)[C@@H](N)[C@@H](C)O)C(=O)N[C@@H](CC(=O)O)C(=O)N[C@@H](CO)C(=O)N[C@@H](CC(C)C)C(=O)N1CCC[C@H]1C(=O)N[C@@H](CC(C)C)C(=O)N[C@H](C(=O)N[C@@H](CC(=O)O)C(=O)N[C@H](C(=O)N[C@@H](Cc1c[nH]cn1)C(=O)N[C@@H](CO)C(=O)N[C@@H](CCCCN)C(=O)N[C@@H](CCCNC(N)=O)C(=O)O)[C@@H](C)O)C(C)C [TNLDSLPLVDTHSKX] (H-TNLDSLPLVDTHSK[Cit]-OH)	772 nM	> 40000 nM				
CC[C@H](C)[C@H](NC(=O)[C@@H](NC(=O)[C@H](CCC(N)=O)NC(=O)CNC(=O)[C@H](CC(=O)O)NC(=O)[C@H](CCCNC(N)=O)NC(=O)[C@@H](NC(=O)[C@H](CCC(=O)O)NC(=O)[C@@H](NC(=O)[C@@H](N)[C@@H](C)O)C(C)C)[C@@H](C)O)C(C)C)C(=O)N[C@@H](CC(N)=O)C(=O)N[C@@H](CCC(=O)O)C(=O)N[C@H](C(=O)N[C@@H](CO)C(=O)N[C@@H](CCC(N)=O)C(=O)O)[C@@H](C)O [TVETXDGQVINETSQ] (H-TVET[Cit]DGQVINETSQ-OH)	7860 nM	14300 nM				
CC(C)C[C@H](NC(=O)[C@H](CCC(N)=O)NC(=O)[C@H](CC(=O)O)NC(=O)[C@@H](N)C(C)C)C(=O)N[C@H](C(=O)N[C@@H](CC(N)=O)C(=O)N[C@@H](CC(=O)O)C(=O)N[C@@H](CCCCN)C(=O)N[C@@H](C)C(=O)N[C@@H](CCCNC(=N)N)C(=O)N[C@H](C(=O)N[C@@H](CCC(=O)O)C(=O)N[C@H](C(=O)N[C@@H](CCC(=O)O)C(=O)N[C@@H](CCCNC(N)=O)C(=O)O)C(C)C)C(C)C)[C@@H](C)O [VDQLTNDKARVEVEX] (H-VDQLTNDKARVEVE[Cit]-OH)			7420 nM	> 40000 nM		
CC(C)C[C@H](NC(=O)[C@H](CCC(N)=O)NC(=O)[C@H](CC(=O)O)NC(=O)[C@@H](N)C(C)C)C(=O)N[C@H](C(=O)N[C@@H](CC(N)=O)C(=O)N[C@@H](CC(=O)O)C(=O)N[C@@H](CCCCN)C(=O)N[C@@H](C)C(=O)N[C@@H](CCCNC(N)=O)C(=O)N[C@H](C(=O)N[C@@H](CCC(=O)O)C(=O)N[C@H](C(=O)N[C@@H](CCC(=O)O)C(=O)N[C@@H](CCCNC(=N)N)C(=O)O)C(C)C)C(C)C)[C@@H](C)O [VDQLTNDKAXVEVER] (H-VDQLTNDKA[Cit]VEVER-OH)			20400 nM	> 40000 nM		
CC[C@H](C)[C@H](NC(=O)[C@H](CC(=O)O)NC(=O)[C@H](CCC(=O)O)NC(=O)[C@H](C)NC(=O)[C@H](CC(C)C)NC(=O)[C@H](CC(N)=O)NC(=O)[C@H](CC(=O)O)NC(=O)[C@H](CCCNC(=N)N)NC(=O)[C@H](CCC(=O)O)NC(=O)[C@@H](NC(=O)[C@H](CCC(=O)O)NC(=O)[C@@H](N)C(C)C)C(C)C)C(=O)N[C@@H](CCSC)C(=O)N[C@@H](CCCNC(N)=O)C(=O)N[C@@H](CC(C)C)C(=O)O [VEVERDNLAEDIMXL] (H-VEVERDNLAEDIM[Cit]L-OH)			19600 nM	17100 nM		
CC[C@H](C)[C@H](NC(=O)[C@H](CC(=O)O)NC(=O)[C@H](CCC(=O)O)NC(=O)[C@H](C)NC(=O)[C@H](CC(C)C)NC(=O)[C@H](CC(N)=O)NC(=O)[C@H](CC(=O)O)NC(=O)[C@H](CCCNC(N)=O)NC(=O)[C@H](CCC(=O)O)NC(=O)[C@@H](NC(=O)[C@H](CCC(=O)O)NC(=O)[C@@H](N)C(C)C)C(C)C)C(=O)N[C@@H](CCSC)C(=O)N[C@@H](CCCNC(=N)N)C(=O)N[C@@H](CC(C)C)C(=O)O [VEVEXDNLAEDIMRL] (H-VEVE[Cit]DNLAEDIMRL-OH)			27100 nM	16300 nM		
CC(C)C[C@H](NC(=O)[C@H](CC(C)C)NC(=O)[C@@H](NC(=O)[C@H](CC(C)C)NC(=O)[C@H](CC(C)C)NC(=O)[C@@H](N)C(C)C)[C@@H](C)O)C(=O)N[C@H](C(=O)N[C@@H](C)C(=O)N[C@@H](C)C(=O)N[C@H](C(=O)N[C@@H](CC(C)C)C(=O)N[C@@H](CCCNC(N)=O)C(=O)N[C@@H](CS)C(=O)N[C@@H](CCC(N)=O)C(=O)NCC(=O)O)C(C)C)C(C)C [VLLTLLVAAVLXCQG] (H-VLLTLLVAAVL[Cit]CQG-OH)	29 nM	> 40000 nM				

Source: publication PMC5421785, “Citrullination only infrequently impacts peptide binding to HLA class II MHC” (PLoS ONE, 2017)
